Test: gradient 5% acetonitrile 3 min, to 50% in 2 min, to 85% in 15 min, held 3 min, 100 µL/min
Settings: column: Zorbax Extend-C18 2.1 x 50 mm; eluents: water / acetonitrile, 0.1% formic acid
Method in brief: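 Pure standards were analyzed in mixtures of ~100 molecules using HPLC coupled to a quadrupole time-of-flight mass spectrometer, in both positive and negative ionization mode. Separation used a Zorbax Extend-C18 column (2.1 × 50 mm, 1.8 μm) at 100 μL/min, with water and acetonitrile each containing 0.1% formic acid. Dead and dwell volumes were 40 μL and 900 μL, and data were collected over 3 months. Retention time was read from computationally picked adduct peaks, each inspected manually.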

RP-LC retention time [s]	SMILES
958	CCC(C)CN(CC(=O)N1CCc2sccc2C1COc1ccccc1F)C(=O)COC (stereo unspecified)
973	Cc1nn2c(CNS(=O)(=O)c3ccc(Cl)cc3C)c(-c3ccccc3)nc2s1
882	O=C(COc1ccc(F)cc1)NCC1(c2cccs2)CC1
746	CCS(=O)(=O)N1CCCc2cc(C(=O)NC(C)C)ccc21
749	O=C1NCCCCCCN(C(=O)Nc2ccc3c(c2)OCCO3)[C@H]2CCC[C@@H]12
819	O=C(Cn1cnc(-c2nc(-c3ccccc3)cs2)c1)Nc1ccccc1
1110	CCc1sc(NC(=O)Cc2ccc(F)cc2)nc1-c1ccccc1
632	CCOC(=O)c1cnc(N2CCc3ccccc32)[nH]c1=O
908	O=C(NC1CCCCC1)c1ccc2ccnc(N3CCN(c4ccccc4F)CC3)c2c1
968	Cc1cc(N2CCCC2)n2nc(-c3ccc(C(C)(C)C)cc3)nc2n1
922	O=C(NCc1ccccc1C(F)(F)F)c1cn2nc(Cl)ccc2n1
650	CCCNC(=O)C1CCCN(c2ccc(SCC(=O)Nc3c(C)cccc3CC)nn2)C1 (stereo unspecified)
595	CCN1CCN(CCCNC(=O)c2cc(-c3ccc(C)c(C)c3)[nH]c2C)CC1
883	CC(C)n1ncc(NC(=O)c2ccc(F)cc2)c(N2CCOCC2)c1=O
1310	O=C(Nc1cc(F)cc(F)c1)c1c(O)c2cccnc2n(-c2cccc(F)c2)c1=O
744	CC1CCN(S(=O)(=O)c2ccc3nn(C)c(=O)n3c2)CC1
594	COc1ccc(S(=O)(=O)N2CCN=C2SCc2cccnc2)cc1
796	O=C(COc1ccc(Cl)cc1)Nc1nnc(Cc2cccs2)o1
660	O=C(CNC(=O)c1ccc(F)c(Cl)c1)Nc1nc2ccccc2[nH]1
624	Cc1cc(C(=O)N2CCC3(CC2)CC(O)CCO3)c(C)o1 (stereo unspecified)
659	COc1ccc(Cl)cc1NC(=O)NCCn1c(-c2ccncc2)nc2cccnc21
842	COc1cccc(CNC(=O)c2ccc3c(c2)N(C)C(=O)C2CCCCN32)c1 (stereo unspecified)
752	Nc1ccc(C(=O)Nc2cccc(N)c2)cc1

RP-LC retention time [s]	SMILES
828	CN(C)c1ccc(N2C=C(C(=O)N3CCOCC3)S(=O)(=O)c3ccc(F)cc32)cc1
778	Cn1ncc2c(N3CCSCC3)nc(C(=O)NCc3cccs3)nc21
617	O=C(CCc1ccc2c(c1)CN(C(=O)C1CC1)CCO2)NC1CCS(=O)(=O)C1 (stereo unspecified)
620	O=C(c1ccccn1)N1CCC(n2c(C3CCCC3)nc3cccnc32)C1 (stereo unspecified)
901	O=C(c1c[nH]c2ccccc12)N1CCC(c2nc(-c3ccccc3)no2)C1 (stereo unspecified)
1040	Cc1cc(C)cc(N2CC(c3nc(-c4ccc5c(c4)OCO5)no3)CC2=O)c1 (stereo unspecified)
673	CC(=O)N(C1CCOCC1)C1CCN(C(=O)c2ccc(C)s2)CC1
857	O=C(Cn1ccn2nc(-c3ccc(F)cc3)c(CO)c2c1=O)N1CCc2ccccc21
684	NC(=O)c1cn(Cc2c(F)cccc2F)nn1
574	O=C(NCc1ccc(F)cc1)N1CCc2nc[nH]c2C1
738	COCCc1noc(C2CN(C(=O)C3(c4ccc(OC)cc4)CC3)C2)n1
709	CCc1noc(-c2cccnc2N2CCCN(Cc3ccc(Cl)cc3)CC2)n1
640	COCCNC(=O)c1cc(-c2ccncc2)cn1Cc1ccc(C)cc1
767	Cc1cc(-c2csc(Nc3ccc(N(C)C)cc3)n2)ccc1F
658	O=C(Cn1c(=O)oc2ccccc21)N1C[C@H]2C[C@H](C1)[C@H]1CCCC(=O)N1C2
794	COc1ccc(OC)c(NC(=O)C2CC(=O)N(CCc3c[nH]c4ccc(F)cc34)C2)c1 (stereo unspecified)
807	CC(C)c1ccccc1NC(=O)CN1C(=O)NC2(CCCCC2)C1=O
770	O=C(Cc1cccc(F)c1)NC1CCN(c2ccccc2)C1=O (stereo unspecified)
548	O=C(NCCCN1CCCC1)c1ccc(CS(=O)Cc2ccccc2Cl)o1 (stereo unspecified)
572	COc1ccc(-c2ccc(N3CCN(c4ccccn4)CC3)nn2)cc1S(=O)(=O)N1CCOCC1
620	Nc1cc(C2CCN(C(=O)c3cncc(Br)c3)CC2)no1
579	CC(C)C(=O)N1CC(c2noc(C3CCCN3CC3CC3)n2)C1 (stereo unspecified)
1040	CCc1cccc(NC(=O)CSc2cc(N3CCN(c4ccc(OC)cc4)CC3)ncn2)c1

RP-LC retention time [s]	SMILES
674	CCOc1ccc(NC(=O)C2CCCN(c3nnc4ccccn34)C2)cc1 (stereo unspecified)
750	O=C1NCCc2c1[nH]c1ccccc21
562	CN(C)CC1CN(C(=O)c2ccc3c(c2)OCO3)CC12CCOCC2 (stereo unspecified)
674	CC1(C(=O)N2CC(F)(F)C[C@H]2c2nc(-c3ncccn3)no2)CC1
716	CSc1ccc(CNC(=O)Cc2nnc(-c3ccc4ncccc4c3)o2)cc1
1170	CN(C)c1ccc(/C=C2\Cc3ccccc3C2=O)cc1Br
896	COc1ccc(NS(=O)(=O)c2cn(CC(C)C)c3ncccc23)cc1
904	Cc1cc(-c2nnc(C3CCC3)o2)c(C)n1CC(=O)NCc1ccc(F)c(Cl)c1
739	Cc1cc(C)cc(NC(=O)Cc2c(C(=O)O)c(C)cn2C)c1
740	CC1(C(=O)NC2CCCCCCC2)CN(S(C)(=O)=O)CC(=O)N1Cc1ccc(F)cc1 (stereo unspecified)
549	Cc1n[nH]c(C)c1CNC(=O)C1Cn2cccc2C(=O)N1C (stereo unspecified)
602	Cc1nc2ccn(Cc3ccco3)c(=O)c2cc1C(=O)N1CCN(c2ccccn2)CC1
754	CCN1CCCn2cc(S(=O)(=O)NCc3cccc(F)c3)cc2C1=O
647	CCc1cc(=O)n(CC(=O)NCc2ccccc2)c(N2CCOCC2)n1
693	NC(=O)COC1CCC12CCN(C(=O)C1CCCC1)CC2 (stereo unspecified)
608	Cc1cccc(CN2CCN(CC(=O)N3CCN(Cc4ccccc4)CC3)C(=O)C2=O)c1
623	Cn1cc(-c2cc3n(n2)CCC(=O)N3CC(=O)N2CCC(N3CCCCC3)CC2)c2ccccc21
705	Cc1ccccc1-c1noc(N2CCC(C(=O)N3CCN(C4CCCCC4)CC3)CC2)n1
900	COc1cccc(-c2noc(C3CCCN3C(=O)Nc3ccc(OC)cc3C)n2)c1 (stereo unspecified)
739	Cc1ccc(-c2cc3n(n2)C(NCCc2cccs2)CNC3=O)cc1 (stereo unspecified)
854	CC(C)(C)c1ccc(S(=O)(=O)N2CCC3(CC2)NCCN=C3NCc2ccccc2)cc1
697	CC(C)n1c(=O)sc2cc(S(=O)(=O)N3CCC(C(=O)Nc4cccc(C#N)c4)CC3)ccc21
605	CCOC(=O)c1nc(NCC2CCN(Cc3cccc(F)c3)CC2)c2ccccc2n1

RP-LC retention time [s]	SMILES
657	CN1CCCn2nc(C3CCN(C(=O)NCCc4ccccc4)CC3)cc2C1=O
910	CCOC(=O)c1cccc(NC(=O)Cn2ccc3ccc(-c4nnc(CC)o4)cc32)c1
798	O=C(c1ccc2[nH]ccc2c1)N1CCN(c2cc(-c3ccc(Cl)cc3)[nH]n2)CC1
1290	Fc1ccc(OCc2nc(-c3cccc(-c4csc(C5CC5)n4)c3)no2)cc1
759	Cc1nnc(N2CCCC(C(=O)NCc3ccccc3Cl)C2)c2nn(-c3ccccc3)c(C)c12 (stereo unspecified)
626	CCOC(=O)c1c(C)[nH]c(CCC(=O)NCc2cn[nH]c2C)c1C
842	CN1CCCc2cc(CCNC(=O)C(=O)NCCC3=CCCCC3)ccc21
653	CCc1nc2ccc(-c3noc(CNS(=O)(=O)c4ccccc4)n3)cc2n1CC
645	COc1ccc(CNC(=O)CCC2CCN(c3cc(NC4CC4)ncn3)CC2)cc1
667	Cc1noc([C@@H]2CC(F)(F)CN2C(=O)c2cocn2)n1
600	O=C(NCC(=O)N1CCN(c2ccccn2)CC1)c1cc2ccccc2[nH]1
915	O=C(NCc1ccc(-c2noc(/C=C/c3ccccc3)n2)s1)C1CC1
586	Cc1ccnc(N2CCCC(C(=O)NCCCN3CCCCCC3)C2)n1 (stereo unspecified)
832	COc1ccc(-c2csc3c(=O)n(CC(=O)NC4CCCC4)cnc23)cc1
1110	CCOc1ccc(-c2nc(NC(=O)c3c(F)cccc3F)sc2C)cc1
712	O=C(c1ccn[nH]1)N1CC(F)(F)C[C@H]1c1nc(C2CC2)no1
947	Cc1nc(N2CCN(C(=O)Nc3cccc(C(F)(F)F)c3)CC2)cc(-n2cccn2)n1
795	COc1cc(NC(=O)Cn2ccc3sc(C)cc3c2=O)cc(OC)c1
761	COc1ccc(N2CC(NC(=O)C(=O)c3c[nH]c4ccccc34)CC2=O)cc1 (stereo unspecified)
1150	CC(C)Cc1ccc(S(=O)(=O)N2CCc3c(c(-c4nnc(-c5ccccc5)o4)nn3C)C2)cc1
944	O=C(Nc1ccc(C2(C(=O)N3CCN(c4ccccc4F)CC3)CCC2)cc1)C1CC1

SMILES	RP-LC retention time [s]
CCn1cc(C(=O)Nc2ccc(Cl)cc2)c2cccnc21	931

— the METLIN SMRT retention time set (Domingo-Almenara et al. 2019)
